Laboratory results taken from ChEMBL document CHEMBL5303304, “EUbOPEN Chemogenomics Library - IncuCyte” (2023).

Columns and labels:
Format in all cases: toxicity, cell-based
Fibroblast = assay: Incucyte cell viability with human fibroblast; settings: 10 µM, compound concentration 10 uM
HEK-293T = assay: Incucyte cell viability with HEK293T; settings: human, 10 µM, compound concentration 10 uM
U2OS = assay: Incucyte cell viability with U2OS; settings: human, 10 µM, compound concentration 10 uM
Further: unitless GR value; below 1 slowed growth and below 0 cell loss.

Cc1nccn1-c1ccc(Sc2cccc(C3(C(N)=O)CCOCC3)c2)cc1
Growth Rate (Fibroblast; 0 h, replicate number 2): 0.46 | Growth Rate (Fibroblast; 6 h, replicate number 1): 0.34 | Growth Rate (Fibroblast; 6 h, replicate number 2): -0.58 | Growth Rate (Fibroblast; 12 h, replicate number 1): 0.28 | Growth Rate (Fibroblast; 12 h, replicate number 2): 0.59 | Growth Rate (Fibroblast; 18 h, replicate number 1): 0.33 | Growth Rate (Fibroblast; 18 h, replicate number 2): 0.72 | Growth Rate (Fibroblast; 24 h, replicate number 1): 0.45 | Growth Rate (Fibroblast; 24 h, replicate number 2): 0.71 | Growth Rate (HEK-293T; 6 h, replicate number 1): 0.3 | Growth Rate (HEK-293T; 6 h, replicate number 2): -0.79 | Growth Rate (HEK-293T; 12 h, replicate number 1): 0.47 | Growth Rate (HEK-293T; 12 h, replicate number 2): -0.38 | Growth Rate (HEK-293T; 18 h, replicate number 1): 0.41 | Growth Rate (HEK-293T; 18 h, replicate number 2): -0.09 | Growth Rate (HEK-293T; 24 h, replicate number 1): 0.4 | Growth Rate (HEK-293T; 24 h, replicate number 2): 0.1 | Growth Rate (U2OS; 6 h, replicate number 2): 0.9 | Growth Rate (U2OS; 12 h, replicate number 1): 0.88 | Growth Rate (U2OS; 12 h, replicate number 2): 0.71 | Growth Rate (U2OS; 18 h, replicate number 2): 0.78 | Growth Rate (U2OS; 24 h, replicate number 1): 0.88 | Growth Rate (U2OS; 24 h, replicate number 2): 0.81

COc1cc(-c2nn([C@H]3CC[C@H](N4CCN(C(C)=O)CC4)CC3)c3ncnc(N)c23)ccc1NC(=O)c1cc2ccccc2n1C
Growth Rate (Fibroblast; 0 h, replicate number 1): -1 | Growth Rate (Fibroblast; 6 h, replicate number 1): -0.52 | Growth Rate (Fibroblast; 6 h, replicate number 2): -0.77 | Growth Rate (Fibroblast; 12 h, replicate number 1): -0.69 | Growth Rate (Fibroblast; 12 h, replicate number 2): 0.45 | Growth Rate (Fibroblast; 18 h, replicate number 1): -0.56 | Growth Rate (Fibroblast; 24 h, replicate number 1): -0.45 | Growth Rate (HEK-293T; 6 h, replicate number 1): -0.95 | Growth Rate (HEK-293T; 6 h, replicate number 2): -0.96 | Growth Rate (HEK-293T; 12 h, replicate number 1): -0.39 | Growth Rate (HEK-293T; 12 h, replicate number 2): -0.18 | Growth Rate (HEK-293T; 18 h, replicate number 1): 0.38 | Growth Rate (HEK-293T; 18 h, replicate number 2): 0.59 | Growth Rate (HEK-293T; 24 h, replicate number 1): 0.69 | Growth Rate (HEK-293T; 24 h, replicate number 2): 0.89 | Growth Rate (U2OS; 0 h, replicate number 1): -0.86 | Growth Rate (U2OS; 0 h, replicate number 2): 0.2 | Growth Rate (U2OS; 6 h, replicate number 1): 0.32 | Growth Rate (U2OS; 6 h, replicate number 2): 0.56 | Growth Rate (U2OS; 12 h, replicate number 1): 0.44 | Growth Rate (U2OS; 12 h, replicate number 2): 0.61 | Growth Rate (U2OS; 18 h, replicate number 1): 0.44 | Growth Rate (U2OS; 18 h, replicate number 2): 0.95 | Growth Rate (U2OS; 24 h, replicate number 1): 0.44 | Growth Rate (U2OS; 24 h, replicate number 2): 0.91

CCN(CC)CCO[C@H]1CC[C@@]2(C)C(=CC[C@@H]3[C@@H]2CC[C@]2(C)C(=O)CC[C@@H]32)C1.Cl
Growth Rate (Fibroblast; 6 h, replicate number 1): 0.34 | Growth Rate (Fibroblast; 12 h, replicate number 1): -0.34 | Growth Rate (Fibroblast; 12 h, replicate number 2): -0.05 | Growth Rate (Fibroblast; 18 h, replicate number 1): -0.18 | Growth Rate (Fibroblast; 18 h, replicate number 2): -0.06 | Growth Rate (Fibroblast; 24 h, replicate number 1): -0.25 | Growth Rate (Fibroblast; 24 h, replicate number 2): -0.11 | Growth Rate (HEK-293T; 6 h, replicate number 1): 0.35 | Growth Rate (HEK-293T; 6 h, replicate number 2): 0.24 | Growth Rate (HEK-293T; 12 h, replicate number 1): 0.32 | Growth Rate (HEK-293T; 12 h, replicate number 2): 0.31 | Growth Rate (HEK-293T; 18 h, replicate number 1): 0.45 | Growth Rate (HEK-293T; 18 h, replicate number 2): 0.42 | Growth Rate (HEK-293T; 24 h, replicate number 1): 0.53 | Growth Rate (HEK-293T; 24 h, replicate number 2): 0.52 | Growth Rate (U2OS; 0 h, replicate number 1): 0.56 | Growth Rate (U2OS; 6 h, replicate number 1): 0.77 | Growth Rate (U2OS; 24 h, replicate number 1): 0.91

C[C@@H]1COCCN1c1cc(=O)n2c(n1)N(Cc1cncc(Cl)c1)[C@H](C(F)(F)F)CC2
Growth Rate (Fibroblast; 0 h, replicate number 2): -0.86 | Growth Rate (Fibroblast; 6 h, replicate number 1): 0.36 | Growth Rate (Fibroblast; 6 h, replicate number 2): -0.75 | Growth Rate (Fibroblast; 12 h, replicate number 1): 0.72 | Growth Rate (Fibroblast; 12 h, replicate number 2): 0.29 | Growth Rate (Fibroblast; 18 h, replicate number 1): 0.92 | Growth Rate (Fibroblast; 24 h, replicate number 1): 0.83 | Growth Rate (HEK-293T; 6 h, replicate number 1): -0.3 | Growth Rate (HEK-293T; 6 h, replicate number 2): -0.11 | Growth Rate (HEK-293T; 12 h, replicate number 1): 0.15 | Growth Rate (HEK-293T; 12 h, replicate number 2): 0.44 | Growth Rate (HEK-293T; 18 h, replicate number 1): 0.39 | Growth Rate (HEK-293T; 18 h, replicate number 2): 0.54 | Growth Rate (HEK-293T; 24 h, replicate number 1): 0.39 | Growth Rate (HEK-293T; 24 h, replicate number 2): 0.45 | Growth Rate (U2OS; 0 h, replicate number 1): 0.01 | Growth Rate (U2OS; 6 h, replicate number 1): 0.61 | Growth Rate (U2OS; 12 h, replicate number 1): 0.92 | Growth Rate (U2OS; 12 h, replicate number 2): 0.89 | Growth Rate (U2OS; 18 h, replicate number 1): 0.87 | Growth Rate (U2OS; 18 h, replicate number 2): 0.95 | Growth Rate (U2OS; 24 h, replicate number 1): 0.73

Cc1cc2nc(N3CCC(C(=O)NC4CCCC4)CC3)n(C(C)C)c2cc1C
Growth Rate (Fibroblast; 0 h, replicate number 1): -1 | Growth Rate (Fibroblast; 6 h, replicate number 1): 0.17 | Growth Rate (Fibroblast; 12 h, replicate number 1): 0.26 | Growth Rate (Fibroblast; 12 h, replicate number 2): 0.74 | Growth Rate (Fibroblast; 18 h, replicate number 1): 0.48 | Growth Rate (Fibroblast; 18 h, replicate number 2): 0.7 | Growth Rate (Fibroblast; 24 h, replicate number 1): 0.4 | Growth Rate (Fibroblast; 24 h, replicate number 2): 0.78 | Growth Rate (HEK-293T; 6 h, replicate number 1): 0.3 | Growth Rate (HEK-293T; 12 h, replicate number 1): 0.77 | Growth Rate (HEK-293T; 18 h, replicate number 1): 0.97 | Growth Rate (HEK-293T; 24 h, replicate number 1): 0.88 | Growth Rate (U2OS; 0 h, replicate number 2): -0.6 | Growth Rate (U2OS; 6 h, replicate number 2): 0.39 | Growth Rate (U2OS; 12 h, replicate number 1): 0.79 | Growth Rate (U2OS; 12 h, replicate number 2): 0.47 | Growth Rate (U2OS; 18 h, replicate number 2): 0.67 | Growth Rate (U2OS; 24 h, replicate number 1): 0.95 | Growth Rate (U2OS; 24 h, replicate number 2): 0.8

Cc1cc(C)nc(Nc2ncc(C(=O)NCCc3c(C)[nH]c4ccccc34)cn2)c1.Cl
Growth Rate (Fibroblast; 0 h, replicate number 1): -1 | Growth Rate (Fibroblast; 24 h, replicate number 2): 0.93 | Growth Rate (HEK-293T; 6 h, replicate number 1): 0.92 | Growth Rate (HEK-293T; 6 h, replicate number 2): 0.14 | Growth Rate (HEK-293T; 12 h, replicate number 2): 0.82 | Growth Rate (HEK-293T; 18 h, replicate number 1): 0.94 | Growth Rate (HEK-293T; 18 h, replicate number 2): 1 | Growth Rate (HEK-293T; 24 h, replicate number 1): 0.99 | Growth Rate (U2OS; 0 h, replicate number 2): 0.92 | Growth Rate (U2OS; 6 h, replicate number 1): 0.56 | Growth Rate (U2OS; 6 h, replicate number 2): 0.75 | Growth Rate (U2OS; 12 h, replicate number 1): 0.79 | Growth Rate (U2OS; 12 h, replicate number 2): 0.87 | Growth Rate (U2OS; 18 h, replicate number 1): 0.77 | Growth Rate (U2OS; 24 h, replicate number 1): 0.98
